Where two headings read alike, the source gives them in different places.

Test [1] deals with primary human T-cells. Kind of test: Proliferation assay after 5 days (CellTiter-Glo, CD3 stimulation; PBS counter screen). The format is cell-based. Conditions: CD3 stimulation; for Emax / EC50: Homo sapiens, T-cell, 120 h; for Emax: read-out: Emax proliferation (% activation); for EC50: primary human T-cells, CellTiter-Glo after 5 days, EC50 of fitted sigmoidal curve, read-out: Tcell Proliferation CD3 EC50. The essentials: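 Proliferation is measured 5 days post-treatment as ATP-dependent luminescence. Flags mark compounds that activated unstimulated cells or harmed viability.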
(In general: In ATP-based viability assays light output follows the ATP content of the culture.)

In test [2] the test system is primary human T-cells.
Procedure: As readouts for T-cell activation, IL2 secretion after 24 hours and proliferation after 5 days was measured. Increases in IL2 secretion and proliferation upon compound treatment were assessed as the % of the maximum of reference compound A1. […] As a counter screen and to make sure that no unwanted TCR-independent activation was triggered, PBS conditions were run for all compounds.
For coating of plates, PBS++ with PBS−− or PBS++ with CD3 antibody (concentration depending on donor and determined by CD3 titrations) was added 100 μl/well to Poly-D Lysine coated 96-well plates. Plates were sealed and incubated at room temperature for 3 hours on a table-top rocking platform. After incubation, plates were washed once with PBS−− and filled with 40 μl/well culture medium only. Compounds were then added (see next section) to medium only plates. After 3 hours of culturing the T-cells, cells were filtered through a cell strainer (Miltenyi Biotech, #130-041-407), counted again and concentration was adjusted to 1.25 Mio/ml.
Cells were then seeded 80 μl/well to the 40 μl/well including dispensed compounds according to plate layout. By adding cells, compounds were further diluted 1:3, and resulting in 100 k cells/120 μl/well. After 24 hours 40 μl of supernatant was collected carefully from the top while not disturbing the cells and transferred into a round bottom 96 well plate. Collected and frozen supernatant was used for detection of IL2 using the IL-2 Human ProQuantum Immunoassay Kit (Invitrogen) or using the Human IL-2 ELISA Kit (Thermo Fisher).
Compounds were added in a 5 or 6pt dose response with the Tecan D300e Digital Dispenser, all conditions 3 times more concentrated than the end-concentration, since cells are added afterwards (80 μl cells to 40 μl prepared medium with treatment). The DR was starting at 20 μM or 10 μM final top concentration and a dilution factor of 3.333. The positive control was the reference compound A1 that was added in a dose response as well, additionally to 3 wells of only 20 μM representing the positive stimulator control. All wells were normalized with DMSO to a final concentration of 0.6% (0.2% end-concentration).
The immunoassay is done following the manufacturer's manual (Invitrogen, #A35603). Additional information: For the immunoassay, MicroAmp™ EnduraPlate™ Optical 384-Well plates are used. Frozen supernatant is thawed and centrifuged for 5 minutes at 1000×g, both steps at 4° C. After centrifugation, required sample amount is taken from the top, and in a separate LightCycler V-bottom plate (working plate) diluted with assay dilution buffer, dilution factor depending on the PBS or CD3 condition but at least 1:3. IL-2 standard and blanks are prepared in the same V-bottom plate, standard with a range of 0.0128-5000 pg/ml (extended version). After preparation, 5 μl of sample dilutions or standard/blanks are transferred to the optical 384-well plate (assay plate) and the 10 μl reaction protocol is being followed. For measurement, the QuantStudio 12K Flex system is used.
ELISA is done following the manufacturer's manual (Thermo Fisher Scientific, #88-7025-88). Additional information: For the ELISA Nunc MaxiSorp 96 well plates are used. Frozen supernatant is thawed and centrifuged for 5 minutes at 1000×g, both steps at 4° C. After that, required sample amount is taken from the top, and in a separate V-bottom plate diluted with ELISA diluent, dilution factor depending on the PBS or CD3 condition. IL-2 standard and blanks are prepared in the same V-bottom plate. After preparation, 50 μl of sample dilutions and 100 μl of standard or blanks are transferred to the Nunc plates.
CD3 and PBS plates were analysed separately in Genedata Screener using Roche Normalization PCT_POS_CTRL with DMSO set as Neutral Control and 20 μM of the reference compound A1 set as Stimulator Control/100%.
For CD3 conditions EC50 and Emax of the fitted sigmoidal curve were reported.
The mark [3] stands for this setting: 5 days, normalized to reference compound A1 as stimulator control = 100%, DMSO neutral control.

On to `N[C@H]1CS(=O)(=O)c2cc(F)c(-c3nnc(C4CN(CCO)CC(F)(F)C4)o3)cc2N(Cc2ccc(Cl)cc2)C1=O` (stereo partly drawn) [Example 152, (3R)-3-amino-5-[(4-chlorophenyl)methyl]-7-[5-[5,5-difluoro-1-(2-hydroxyethyl)-3-piperidyl]-1,3,4-oxadiazol-2-yl]-8-fluoro-1,1-dioxo-2,3-dihydro-1λ^6,5-benzothiazepin-4-one], for which the Emax in test [1] (setting [3]) is 78%. Moreover, the values for the EC50 in test [1] and in test [2] were 549 nM and 477 nM, respectively.

With `CN1CC(c2nnc(-c3cc4c(cc3F)S(=O)(=O)C[C@H](N)C(=O)N4Cc3ccc(Cl)cc3)o2)CC(F)(F)C1` (stereo partly drawn) [Example 153, (3R)-3-amino-5-[(4-chlorophenyl)methyl]-7-[5-(5,5-difluoro-1-methyl-3-piperidyl)-1,3,4-oxadiazol-2-yl]-8-fluoro-1,1-dioxo-2,3-dihydro-1λ^6,5-benzothiazepin-4-one], in test [1] (setting [3]), the “Emax proliferation (% activation)” value is 150 % activation. The EC50 came to 112 nM in test [1] and 246 nM in test [2].

As for `CN1CCCC(c2nnc(-c3cc4c(cc3F)S(=O)(=O)C[C@H](N)C(=O)N4Cc3ccc(Cl)cc3)o2)C1` (stereo partly drawn) [Example 154, (3R)-3-amino-5-[(4-chlorophenyl)methyl]-8-fluoro-7-[5-(1-methyl-3-piperidyl)-1,3,4-oxadiazol-2-yl]-1,1-dioxo-2,3-dihydro-1λ^6,5-benzothiazepin-4-one], the Emax in test [1] (setting [3]) is 86%. In addition, the EC50 was 1720 nM in test [1] and 890 nM in test [2].

On to `CN1CC(C)(c2nnc(-c3cc4c(cc3F)S(=O)(=O)C[C@H](N)C(=O)N4Cc3ccc(Cl)cc3)o2)C1` [Example 155, (3R)-3-amino-5-[(4-chlorophenyl)methyl]-7-[5-(1,3-dimethylazetidin-3-yl)-1,3,4-oxadiazol-2-yl]-8-fluoro-1,1-dioxo-2,3-dihydro-1λ^6,5-benzothiazepin-4-one], for which the Emax in test [1] (setting [3]) is 72%. In addition, the EC50 worked out at 4180 nM in test [1] and 778 nM in test [2].

As to `CC(C)(CNC1COC1)c1nnc(-c2cc3c(cc2F)S(=O)(=O)C[C@H](N)C(=O)N3Cc2ccc(Cl)cc2)o1` [Example 156, (3R)-3-amino-5-[(4-chlorophenyl)methyl]-7-[5-[1,1-dimethyl-2-(oxetan-3-ylamino)ethyl]-1,3,4-oxadiazol-2-yl]-8-fluoro-1,1-dioxo-2,3-dihydro-1lambda6,5-benzothiazepin-4-one], the Emax in test [1] (setting [3]) stood at 135%. The EC50 in test [1] was determined as 8130 nM; in test [2] it was 3340 nM.

Consider `CC(C)(CNC1CCOC1)c1nnc(-c2cc3c(cc2F)S(=O)(=O)C[C@H](N)C(=O)N3Cc2ccc(Cl)cc2)o1` (stereo partly drawn) [Example 157, (3R)-3-amino-5-[(4-chlorophenyl)methyl]-7-[5-[1,1-dimethyl-2-(tetrahydrofuran-3-ylamino)ethyl]-1,3,4-oxadiazol-2-yl]-8-fluoro-1,1-dioxo-2,3-dihydro-1λ^6,5-benzothiazepin-4-one], for which the Emax in test [1] (setting [3]) came out at 106%. The EC50 came out at 1010 nM in test [1] and 2100 nM in test [2].

With `CN1CCC(F)(F)C(c2nnc(-c3cc4c(cc3F)S(=O)(=O)C[C@H](N)C(=O)N4Cc3ccc(Cl)cc3)o2)C1` (stereo partly drawn) [Example 158, (3R)-3-amino-5-[(4-chlorophenyl)methyl]-7-[5-(4,4-difluoro-1-methyl-3-piperidyl)-1,3,4-oxadiazol-2-yl]-8-fluoro-1,1-dioxo-2,3-dihydro-1λ^6,5-benzothiazepin-4-one], in test [1] (setting [3]), the Emax was 141%. The figures for the EC50 in test [1] and in test [2] were 2420 nM and 194 nM, respectively.

Consider `N[C@H]1CS(=O)(=O)c2cc(F)c(-c3nnc(C4CN(C5CC5)CC(F)(F)C4)o3)cc2N(Cc2ccc(Cl)cc2)C1=O` (stereo partly drawn) [Example 159, (3R)-3-amino-5-[(4-chlorophenyl)methyl]-7-[5-(1-cyclopropyl-5,5-difluoro-3-piperidyl)-1,3,4-oxadiazol-2-yl]-8-fluoro-1,1-dioxo-2,3-dihydro-1λ^6,5-benzothiazepin-4-one], for which the Emax in test [1] (setting [3]) was determined as 121%. The EC50 in test [1] was determined as 184 nM; in test [2] it was 218 nM.

Take `N[C@H]1CS(=O)(=O)c2cc(F)c(-c3nnc(C4CNCC(F)(F)C4)o3)cc2N(Cc2ccc(Cl)cc2)C1=O` (stereo partly drawn) [Example 160, (3R)-3-amino-5-[(4-chlorophenyl)methyl]-7-[5-(5,5-difluoro-3-piperidyl)-1,3,4-oxadiazol-2-yl]-8-fluoro-1,1-dioxo-2,3-dihydro-1λ^6,5-benzothiazepin-4-one]: the Emax in test [1] (setting [3]) was found to be 96%. The EC50 came to 382 nM in test [1] and 500 nM in test [2].

In the case of `CC1(c2nnc(-c3cc4c(cc3F)S(=O)(=O)C[C@H](N)C(=O)N4Cc3ccc(Cl)cc3)o2)CCNCC1` [Example 161, (3R)-3-amino-5-[(4-chlorophenyl)methyl]-8-fluoro-7-[5-(4-methyl-4-piperidyl)-1,3,4-oxadiazol-2-yl]-1,1-dioxo-2,3-dihydro-1λ^6,5-benzothiazepin-4-one], the Emax in test [1] (setting [3]) amounted to 73%. Moreover, the EC50 in test [1] amounted to 5480 nM; in test [2] it was 1150 nM.

Consider `CC(=O)N1CC(c2nnc(-c3cc4c(cc3F)S(=O)(=O)C[C@H](N)C(=O)N4Cc3ccc(Cl)cc3)o2)CC(F)(F)C1` (stereo partly drawn) [Example 162, (3R)-7-[5-(1-acetyl-5,5-difluoro-3-piperidyl)-1,3,4-oxadiazol-2-yl]-3-amino-5-[(4-chlorophenyl)methyl]-8-fluoro-1,1-dioxo-2,3-dihydro-1λ^6,5-benzothiazepin-4-one], for which the Emax in test [1] (setting [3]) was found to be 84%. The figures for the EC50 in test [1] and in test [2] were 628 nM and 383 nM, respectively.

As for `COC(=O)N1CC(c2nnc(-c3cc4c(cc3F)S(=O)(=O)C[C@H](N)C(=O)N4Cc3ccc(Cl)cc3)o2)CC(F)(F)C1` (stereo partly drawn) [Example 163, methyl 3,3-difluoro-5-[5-[(3R)-3-amino-5-[(4-chlorophenyl)methyl]-8-fluoro-1,1,4-trioxo-2,3-dihydro-1λ^6,5-benzothiazepin-7-yl]-1,3,4-oxadiazol-2-yl]piperidine-1-carboxylate], the Emax in test [1] (setting [3]) is 118%. The EC50 in test [1] amounted to 51.4 nM; in test [2] it was 99.7 nM.

Regarding `CS(=O)(=O)N1CC(c2nnc(-c3cc4c(cc3F)S(=O)(=O)C[C@H](N)C(=O)N4Cc3ccc(Cl)cc3)o2)CC(F)(F)C1` (stereo partly drawn) [Example 164, (3R)-3-amino-5-[(4-chlorophenyl)methyl]-7-[5-(5,5-difluoro-1-methylsulfonyl-3-piperidyl)-1,3,4-oxadiazol-2-yl]-8-fluoro-1,1-dioxo-2,3-dihydro-1λ^6,5-benzothiazepin-4-one], in test [1] (setting [3]), the Emax was determined as 82%. For the same compound, the values for the EC50 in test [1] and in test [2] were 292 nM and 708 nM, respectively.

For the compound `COC(=O)N1CCCC(c2nnc(-c3cc4c(cc3F)S(=O)(=O)C[C@H](N)C(=O)N4Cc3ccc(Cl)cc3)o2)C1` (stereo partly drawn) [Example 165, methyl 3-[5-[(3R)-3-amino-5-[(4-chlorophenyl)methyl]-8-fluoro-1,1,4-trioxo-2,3-dihydro-1λ^6,5-benzothiazepin-7-yl]-1,3,4-oxadiazol-2-yl]piperidine-1-carboxylate], the Emax in test [1] (setting [3]) is 85%. Further, the EC50 in test [1] was 309 nM; in test [2], 458 nM.

Take `COC(=O)N1CCC(c2nnc(-c3cc4c(cc3F)S(=O)(=O)C[C@H](N)C(=O)N4Cc3ccc(Cl)cc3)o2)C1` (stereo partly drawn) [Example 166, methyl 3-[5-[(3R)-3-amino-5-[(4-chlorophenyl)methyl]-8-fluoro-1,1,4-trioxo-2,3-dihydro-1λ^6,5-benzothiazepin-7-yl]-1,3,4-oxadiazol-2-yl]pyrrolidine-1-carboxylate]: the Emax in test [1] (setting [3]) is 104%. Further, the EC50 in test [1] was determined as 904 nM; in test [2], 567 nM.

`COC(=O)N1CCC(c2nnc(-c3cc4c(cc3F)S(=O)(=O)C[C@H](N)C(=O)N4Cc3ccc(Cl)cc3)o2)CC1` [Example 167, methyl 4-[5-[(3R)-3-amino-5-[(4-chlorophenyl)methyl]-8-fluoro-1,1,4-trioxo-2,3-dihydro-1λ^6,5-benzothiazepin-7-yl]-1,3,4-oxadiazol-2-yl]piperidine-1-carboxylate]: the Emax in test [1] (setting [3]) is 100%. Also, the EC50 amounted to 208 nM in test [1] and 122 nM in test [2].

With `CC(=O)N1CCC(c2nnc(-c3cc4c(cc3F)S(=O)(=O)C[C@H](N)C(=O)N4Cc3ccc(Cl)cc3)o2)CC1` [Example 168, (3R)-7-[5-(1-acetyl-4-piperidyl)-1,3,4-oxadiazol-2-yl]-3-amino-5-[(4-chlorophenyl)methyl]-8-fluoro-1,1-dioxo-2,3-dihydro-1λ^6,5-benzothiazepin-4-one], the Emax in test [1] (setting [3]) turned out to be 63%. Also, the EC50 in test [1] was found to be 4950 nM; in test [2], 1590 nM.

`CC(=O)N1CCC(C)(c2nnc(-c3cc4c(cc3F)S(=O)(=O)C[C@H](N)C(=O)N4Cc3ccc(Cl)cc3)o2)CC1` [Example 169, (3R)-7-[5-(1-acetyl-4-methyl-4-piperidyl)-1,3,4-oxadiazol-2-yl]-3-amino-5-[(4-chlorophenyl)methyl]-8-fluoro-1,1-dioxo-2,3-dihydro-1λ^6,5-benzothiazepin-4-one]: the Emax in test [1] (setting [3]) came to 95%. Besides, the EC50 was determined as 2470 nM in test [1] and 3340 nM in test [2].

Consider `CC1(c2nnc(-c3cc4c(cc3F)S(=O)(=O)C[C@H](N)C(=O)N4Cc3ccc(Cl)cc3)o2)CCN(S(C)(=O)=O)CC1` [Example 170, (3R)-3-amino-5-[(4-chlorophenyl)methyl]-8-fluoro-7-[5-(4-methyl-1-methylsulfonyl-4-piperidyl)-1,3,4-oxadiazol-2-yl]-1,1-dioxo-2,3-dihydro-1λ^6,5-benzothiazepin-4-one], for which the Emax in test [1] (setting [3]) was 97%. Also, the EC50 in test [1] is 1500 nM; in test [2] it was 405 nM.

The values above are taken from patent US20240368150A1 (Hoffmann-La Roche Inc., priority 2021, published 2024).
